For four molecules, viability, T/C and IC50 results are on record in PubChem BioAssay AID2060484 (Molecular Pharmacology Branch, DTP, NCI, 2025).

Values joined by “and” are separate entries in the source; they are usually repeats but may differ in a detail not shown here. Identical values can stand only once.

The assay has as its system SUM149PT spheroids with HUVEC/MSC, viability. Description: Anticancer human tumor SUM149PT cell line growth inhibition [GQUAD].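 On all read-outs here: spheroids exposed to drugs for seven days before readout.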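 On viability, T/C: percent viability relative to DMSO vehicle control taken as 100%.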 The following applies: for viability, T/C: stronger effect = lower value. From the text:
DNA G-quadruplex Stabilizer Agents in Combinations in Complex Spheroids
A high-throughput screen of multi-cell type tumor spheroids was designed to identify active combinations of DNA G-quadruplex stabilizer agents and targeted small molecules. Complex spheroids include a stromal component modeled by human endothelial cells (HUVEC) and fibroblasts modeled by human mesenchymal stem cells (MSCs). The concentration ranges selected for each drug and investigational agent were based upon clinically achievable concentrations if the clinical Cmax of the agent was known.
Compounds. The drugs and investigational agents: pidnarulex (CX-5461; NSC782164), APTO-253 (NSC789042), BRACO-19 (NSC847499), peposertib (NSC802822), ceralasertib (NSC780249), elimusertib (NSC800525), camonsertib (NSC841442), AZD-1390 (NSC803789), olaparib (NSC753686), talazoparib (NSC767125), ART-558 (NSC835418), sotorasib (NSC818433), MRTX-1133 (NSC836407), SN-38 (NSC673596), topotecan (NSC609699), etoposide (NSC141540), doxorubicin (NSC123127), gemcitabine (NSC613327), 5-fluorouracil (NSC19893), paclitaxel (NSC125973), vemurafenib (NSC761431), panobinostat (NSC761190), R-306465 (JNJ-16241199; NSC773264), adavosertib (NSC754352), TP-3654 (NSC805149), carboplatin (NSC241240), KSQ-4279 (NSC840948), and staurosporine (NSC755774) were obtained from the National Cancer Institute (NCI) Developmental Therapeutics Program Chemical Repository (34). The FDA-approved anticancer drug set is available from the NCI Developmental Therapeutics Program. […] The stock solutions were prepared in dimethyl sulfoxide (DMSO, Sigma-Aldrich, St. Louis, MO, cat. D2650) at 800-fold the tested concentration and stored at -70 degrees C prior to their use. All drugs and investigational agents were tested over a range starting from a high concentration at or near the clinical Cmax and decreasing in half-log increments. If the clinical Cmax for an agent had not been determined, the highest concentration tested was 10 microM.
2.3 Cell Culture. All cells were maintained in an incubator at 37 degrees C and 5% CO2 with 95% humidity. The PDC lines were cultured according to standard operating procedures established by the NCI PDMR. All PDCs were thawed and cultured in Matrigel-coated flasks prepared with a working solution of 1X Ham's F-12 nutrient mix, without supplementation (Invitrogen, cat. 11765054), 100 U/mL penicillin-streptomycin (Invitrogen, cat. 15140122), and 2.5% Matrigel (Corning Inc., cat. 354248) for the first three passages. The 857933-349-R-J2-PDC line was cultured in 6C/Colon 1B media, which includes advanced DMEM/F-12 (Thermo Fisher Scientific, cat. 12634028), 10 mM HEPES (Thermo Fisher Scientific, cat. 15630080), 1X GlutaMAX supplement (Thermo Fisher Scientific, cat. 35050061), 0.1 mg/mL primocin (InvivoGen, cat. ant-pm-2), 10% defined fetal bovine serum, heat inactivated (HyClone Laboratories Inc., cat. SH30070.03HI), 50% L-WRN conditioned media (ATCC, cat. CRL-3276), 1.25 mM N-Acetyl-L-cysteine (Sigma-Aldrich, cat. A9165), 10 mM nicotinamide (Sigma-Aldrich, cat. N0636), 1X B-27 supplement (Thermo Fisher Scientific, cat. 17504044), 1X N-2 supplement (Thermo Fisher Scientific, cat. 17502048), 10 microM Y-27632 dihydrochloride (Tocris Bioscience, cat. 1254), and 50 ng/mL human EGF recombinant protein (Thermo Fisher Scientific, cat. PHG0311). The 485176-168-R4-J1-PDC line was cultured in Panc media, which includes all 6C/Colon 1B media components plus 100 ng/mL human FGF-10 (Thermo Fisher Scientific, cat. 100-26), 500 nM SB-431542 (Selleckchem, cat. S1067), and gastrin (Tocris, cat. 3006).
[…]

In the case of `CN(C)c1ccc(Nc2c3ccc(NC(=O)CCN4CCCC4)cc3nc3cc(NC(=O)CCN4CCCC4)ccc23)cc1`, the viability, T/C is 102% [middle of 12 runs] (compound 0.0316 µM); 101% [middle of 12 runs] (compound 0.1 µM); 99.9% [middle of 11 runs] (compound 0.316 µM); 90% [middle of 12 runs] (compound 1 µM); 86.2% [middle of 12 runs] (compound 3.16 µM); 86% [middle of 12 runs] (compound 10 µM). The IC50 (compound alone, run of 03/26/2024) was greater than 10000 nM.

On to `C=CC(=O)N1CCN(c2nc(=O)n(-c3c(C)ccnc3C(C)C)c3nc(-c4c(O)cccc4F)c(F)cc23)C(C)C1` (stereo not drawn), for which the viability, T/C was 96.6% and 99.6% and 101% (compound 0.0316 µM); 94.5% and 96.4% and 104% (compound 0.1 µM); 114% and 106% and 105% (compound 0.316 µM); 111% and 110% (2×) (compound 1 µM); 120% and 113% and 117% (compound 3.16 µM); 109% and 101% and 114% (compound 10 µM). In addition, where the note is “curve of compound”, the IC50 was greater than 10000 nM.

For `CC(C)(O)C1CCC(Nc2ccc3ncc(-c4cccc(C(F)(F)F)c4)n3n2)CC1` (stereo not drawn), the viability, T/C runs as follows: (compound 0.0316 µM) 98.3% and 102% and 86%; (compound 0.1 µM) 86.1% and 89.2% and 65.1%; (compound 0.316 µM) 76.1% and 82.5% and 72.4%; (compound 1 µM) 63.5% and 63.8% and 49.3%; (compound 3.16 µM) 47.9% and 49% and 37.8%; (compound 10 µM) 61.8% and 58% and 41.8%. Moreover, the IC50 (curve of compound) was > 10000 nM and 1170 nM.

With `CCc1c2c(nc3ccc(O)cc13)-c1cc3c(c(=O)n1C2)COC(=O)[C@]3(O)CC` + CN(C)c1ccc(Nc2c3ccc(NC(=O)CCN4CCCC4)cc3nc3cc(NC(=O)CCN4CCCC4)ccc23)cc1, the IC50 (curve of first compound, second compound 0.0316 µM) amounted to 11.9 nM; the IC50 (curve of first compound, second compound 0.1 µM) was found to be 14.8 nM; the IC50 (curve of first compound, second compound 0.316 µM) was 6.28 nM; the IC50 (curve of first compound, second compound 1 µM) was 6.73 nM; the IC50 (curve of first compound, second compound 3.16 µM) came out at 5.8 nM; the IC50 (curve of first compound, second compound 10 µM) stood at 6.81 nM. The viability, T/C was 80% (second compound 0.0316 µM, first compound 0.000999 µM); 44% (second compound 0.0316 µM, first compound 0.00316 µM); 54.6% (second compound 0.0316 µM, first compound 0.00999 µM); 45.9% (second compound 0.0316 µM, first compound 0.0316 µM); 38.9% (second compound 0.0316 µM, first compound 0.0999 µM); 20.7% (second compound 0.0316 µM, first compound 0.316 µM). The viability, T/C runs as follows: (second compound 0.1 µM, first compound 0.000999 µM) 70.2%; (second compound 0.1 µM, first compound 0.00316 µM) 45.6%; (second compound 0.1 µM, first compound 0.00999 µM) 52.8%; (second compound 0.1 µM, first compound 0.0316 µM) 48.1%; (second compound 0.1 µM, first compound 0.0999 µM) 41.6%; (second compound 0.1 µM, first compound 0.316 µM) 23.5%. For the same molecule, the viability, T/C is, setting by setting: (second compound 0.316 µM, first compound 0.000999 µM) 64.1%; (second compound 0.316 µM, first compound 0.00316 µM) 45.7%; (second compound 0.316 µM, first compound 0.00999 µM) 45.3%; (second compound 0.316 µM, first compound 0.0316 µM) 47.5%; (second compound 0.316 µM, first compound 0.0999 µM) 37.7%; (second compound 0.316 µM, first compound 0.316 µM) 26%. The viability, T/C reads like this: (second compound 1 µM, first compound 0.000999 µM) 63.8%; (second compound 1 µM, first compound 0.00316 µM) 42.2%; (second compound 1 µM, first compound 0.00999 µM) 47.2%; (second compound 1 µM, first compound 0.0316 µM) 48.8%; (second compound 1 µM, first compound 0.0999 µM) 35.5%; (second compound 1 µM, first compound 0.316 µM) 23.5%. Besides, the viability, T/C runs as follows: (second compound 3.16 µM, first compound 0.000999 µM) 64.1%; (second compound 3.16 µM, first compound 0.00316 µM) 42.1%; (second compound 3.16 µM, first compound 0.00999 µM) 47.2%; (second compound 3.16 µM, first compound 0.0316 µM) 46.1%; (second compound 3.16 µM, first compound 0.0999 µM) 35.6%; (second compound 3.16 µM, first compound 0.316 µM) 23.5%. Also, the viability, T/C is 67.2% (second compound 10 µM, first compound 0.000999 µM); 39.2% (second compound 10 µM, first compound 0.00316 µM); 49.1% (second compound 10 µM, first compound 0.00999 µM); 46.8% (second compound 10 µM, first compound 0.0316 µM); 37.2% (second compound 10 µM, first compound 0.0999 µM); 22.4% (second compound 10 µM, first compound 0.316 µM).
